Source: patent US9440914B2, “Method for treating glioblastomas and other tumors” (THE FEINSTEIN INSTITUTE FOR MEDICAL RESEARCH, priority 2013, dated 2016)

What was measured:
[1] = tested on: GL261 cells with microglia; assay: concentration dependence on microglia-stimulated invasion of glioma cells (24-well transwell); type: cell-based; settings: GL261 3×10^5, microglia 1.5×10^5, 48 h
Protocol: FIG. 11. […] GL261 cells (3×10^5) and microglia (1.5×10^5) were embedded in 50 μl of basement membrane extract in the presence of the indicated concentrations of semapimod (SMP) and CP1213, layered in a 24-well transwell and incubated for 48 h. The number of invading GL261 cells was determined. Data shown represent the average+/−SD of between 2 and 5 independent experiments, each performed in duplicate.
The concentration dependence of the inhibitory effect of semapimod or CP1213 was investigated on microglia-stimulated invasion of glioma cells. GL261 cells (3×10^5) and microglia (1.5×10^5) were embedded in 50 μl of basement membrane extract in the presence of the indicated concentrations of semapimod (SMP) and CP1213, layered in a 24-well transwell and incubated for 48 h. The number of invading GL261 cells was determined. Data are shown in FIG. 11 and represent the average+/−SD of between 2 and 5 independent experiments, each performed in duplicate. The data support a method of treating a glioma, by inhibiting microglia-stimulated invasion processes with guanylhydrazones.

GL261 tumors = assay: orthotopic GL261 glioblastoma model in syngeneic C57Bl/6 mice, intracranial delivery by osmotic pump; type: in vivo, C57BL/6J mice
Protocol: Animal Experiments: All procedures involving mice were conducted in accordance with the National Institutes of Health regulations concerning the use and care of experimental animals. The study of mice was approved by the Institutional Animal Care and Use Committee (IACUC) of the Feinstein Institute. First, 8 week old male C57BL/6J mice were inoculated in the right caudate putamen with GL261 cells. Briefly, animals were placed in a stereotactic frame after pre-anesthesia exposure in a box of 5% isoflurane. Deep anesthesia was maintained on the frame at approximately 2% isoflurane and 2% O2. A burr hole was drilled 1 mm anterior and 2.5 mm to the right of the bregma. With the aid of the stereotactic frame, GL261 cells (2×10^4 cells suspended in 1 μL) were injected with a Hamilton syringe at a depth of 3 mm over a one min time period. Subsequently, the syringe was left in place for 1 min to prevent reflux.
Seven days after implantation of the GL261 cells, an osmotic pump (Alzet, Durect) filled with either 0.42 mg/ml solution of semapimod or vehicle was implanted in a subcutaneous pocket on the dorsal flank of the animal. A catheter with attached cannula delivered the drug intracranially over a period of 2 weeks, at a steady rate of 0.25 μl/h, which is equivalent to a dose of […], assuming no blood-brain barrier permeability of the drug. Starting one day after pump implantation, animals were given 2 Gy whole brain irradiation every other day over a period of 10 days (10 Gy total).
Brains from mice-bearing tumors were frozen on dry ice and stored at −80° C. until processing. The brain was sliced using a cryostat at −20° C. at a thickness of 40 μm (for tumor sizing) or 8 μm for immunohistochemistry. Slices were placed on pre-coated poly-1-lysine slides (Superfrost, Fisher) and fixed in 3.7% formaldehyde in PBS. Sections were stained with Harris-modified haematoxilin solution. Activated microglia were visualized with an Iba1 antibody (Wako). Tumor cell invasion was determined by counting the number of Ki67 (Millipore) positive nuclei located beyond the tumor border. The border was outlined by determining where the bulk of the tumor material was found by Ki67 staining Tumor size was determined as the area of the largest cross section of the tumor, multiplied by the depth of the tumor.
The cell density of the tumor was calculated by counting the total number of cells in 10 fields taken over different sections and multiplying the tumor area by the thickness of the slice (8 μm) to obtain total number of cells in a tumor section. This was then divided by the volume of the tumor section to obtain the number of cells per unit volume. To obtain the total number of cells in a tumor, the cell density was multiplied by the calculated volume of the tumor.
Animals were inoculated with 2×10^4 GL261 cells into the right caudate putamen. To deliver semapimod, an osmotic pump was used that was implanted subcutaneously in the dorsal flank of the animal and fed a transcranial cannula that was inserted into the tumor. In order to mimic a therapeutic setting, tumors were allowed to develop for 1 week before the onset of treatment. To score tumor cell invasion, brain sections were probed for the presence of proliferative antigen Ki67. […] Whereas control tumors display diffuse edges and extensive tumor cell invasion into the surrounding parenchyma, semapimod-treated tumors have a sharply demarcated border (FIG. 4A).

[2] = tested on: SK-NEP1 cells with M2 macrophages; assay: invasion assay of SK-NEP1 co-cultured with polarized primary macrophages; type: cell-based, human; settings: co-culture with M2 macrophages, p<0.01
Protocol: FIG. 7. CNI-1493 inhibits tumor invasion in vitro through in the presence of macrophages. When co-cultured with SK-NEP1, macrophages polarized to express the M2 phenotype induced increased tumor cell invasion. This increase in invasion was reversed when co-cultures were exposed to 200 nM CNI-1493. Error bars represent standard deviation.
In vivo, human ES cells (SK-NEP1) were surgically implanted into the left kidney of athymic mice. Mice were treated for 7 weeks with CNI-1493 or vehicle. Lung parenchyma was assessed for metastases utilizing both H&E and immunohistochemistry for the ES-specific CD99 and endothelial-specific CD31 markers. In vitro, primary macrophages isolated from human blood were polarized to M1 or M2 phenotypes by exposure to GM-CSF or M-CSF and activated with IFN-γ and LPS or IL-4. Cells were co-cultured with polarized macrophages and underwent proliferation and invasion assays in the presence or absence of CNI-1493.

microglia = assay: glioblastoma cell-stimulated microglia invasion (transwell); type: cell-based, murine; settings: GL261 in bottom well, microglia in BME, 48 h; read-out: IC50 for inhibition of GL261-stimulated microglia invasion
Protocol: To measure the invasion of microglia toward glioblastoma cells in vitro, a variant of the glioblastoma cell invasion assay was used. First, 15×10^4 G1261 cells were plated in MSFM medium overnight and subsequently were placed in serum free medium. Subsequently, 5×10^4 microglia cells were embedded in 50 μL, of 10 mg/mL BME with or without 200 nM semapimod, placed in a 8 μm transwell (previously coated with 1 μg/mL fibronectin on the bottom side of the 8 μm filter to maintain adhesion of the cells that invaded through the filter) and allowed to polymerize for 30 min at 37° C. The transwell chambers were then placed above the previously plated GL261. After 48 h of incubation, the chambers were fixed in 3.7% formaldehyde in PBS.
The cells were stained with 0.2% crystal violet in 2% ethanol. The remaining BME was carefully removed and the inserts were allowed to dry. Cells attached to the bottom of the filter were imaged as for the invasion assay and the total number of invaded microglia was determined.
Semapimod inhibits glioblastoma-induced microglia invasion in vitro: Microglia extensively infiltrate glial tumors (5-7). […] This stimulatory effect is abolished by semapimod, with an IC50 of approximately 60 nM.

[3] = two weeks after tumor cell inoculation

Q: With C/C(=N\NC(=N)N)c1cc(NC(=O)CCCCCCCCC(=O)Nc2cc(/C(C)=N/NC(=N)N)cc(/C(C)=N/NC(=N)N)c2)cc(/C(C)=N/NC(=N)N)c1 [semapimod] as the compound, how does the “effect on microglia-stimulated invasion of GL261 glioma cells (concentration dependence)” value [1] read?
A: inhibitory effects

Q: What about the median survival (GL261 tumors; absence of radiation, controls 20 days, not significant) of the same compound?
A: 22 days

Q: And the “number of Iba1+ microglia per tumor area” value (GL261 tumors; equivalent to 6 mg/kg/day intracranially, 1 week)?
A: No significant difference

Q: What about the “inhibition of tumor cell invasion in vivo (Ki67-positive cells beyond tumor border)” value (GL261 tumors; equivalent to 6 mg/kg/day intracranially, 1 week, start 7 days after inoculation) of the same compound?
A: more than 75%

Q: What about the tumor cell density (GL261 tumors; [3]) of the same compound?
A: small but significant increase

Q: What about the “tumor size (volume)” value (GL261 tumors; [3]) of the same compound?
A: robust inhibition

Q: What about the “estimated total number of cells in tumor” value (GL261 tumors; two weeks after tumor cell inoculation, versus control tumors) of the same compound?
A: significantly less

Q: What about the “tumors by histological analysis in surviving animals” value (GL261 tumors; with 10 Gy fractionated whole brain irradiation) of the same compound?
A: no detectable tumors

Q: What about the “survival beyond the median survival time of control animals” value (GL261 tumors; with 10 Gy fractionated whole brain irradiation, most of the animals) of the same compound?
A: at least 40 days

Q: And the “effect on M2 macrophage-enhanced ES cellular invasion” value [2]?
A: strongly decreased

Q: And the IC50 (microglia)?
A: ~60 nM
